Measurements: patent US9249145B2, “Heterocyclic derivatives of pyrazol-4-yl-pyrrolo[2,3-d]pyrimidines as janus kinase inhibitors” (Incyte Holdings Corporation, priority 2009, dated 2016)
Structures can show the parent of a compound that is named as a salt. Where two headings read alike, the source gives them in different places.

Legend:
Jak2 (a.a. 828-1132) = target: T1, Jak2 (a.a. 828-1132) (Homo sapiens, UniProt O60674); assay: In vitro JAK kinase assay (HTRF, phosphorylation of biotinylated peptide), JAK2; type: biochemical
T1 construct: Jak2 (a.a. 828-1132); His tag (N); made in house; host or cells: insect cells (baculovirus)
Description: (§1) Compounds herein were tested for inhibitory activity of JAK targets according to the following in vitro assay described in Park et al., Analytical Biochemistry 1999, 269, 94-104. The catalytic domains of human JAK1 (a.a. 837-1142), Jak2 (a.a. 828-1132) and Jak3 (a.a. 781-1124) with an N-terminal His tag were expressed using baculovirus in insect cells and purified. The catalytic activity of JAK1, JAK2 or JAK3 was assayed by measuring the phosphorylation of a biotinylated peptide. The phosphorylated peptide was detected by homogenous time resolved fluorescence (HTRF). IC50s of compounds were measured for each kinase in the 40 microL reactions that contain the enzyme, ATP and 500 nM peptide in 50 mM Tris (pH 7.8) buffer with 100 mM NaCl, 5 mM DTT, and 0.1 mg/mL (0.01%) BSA. The ATP concentration in the reactions was 90 μM for Jak1, 30 μM for Jak2 and 3 μM for Jak3 for Km conditions. For the 1 mM IC50 measurements, ATP concentration in the reactions was 1 mM. Reactions were carried out at room temperature for 1 hr and then stopped with 20 μL 45 mM EDTA, 300 nM SA-APC, 6 nM Eu-Py20 in assay buffer (Perkin Elmer, Boston, Mass.). Binding to the Europium labeled antibody took place for 40 minutes and HTRF signal was measured on a Fusion plate reader (Perkin Elmer, Boston, Mass.). See Tables 1, 2, 3, and 4 for data related to compounds of the invention.

[1] = target: T2, human JAK1 (a.a. 837-1142) (Homo sapiens, UniProt P23458); assay: In vitro JAK kinase assay (HTRF, phosphorylation of biotinylated peptide), JAK1; type: biochemical
T2 construct: The catalytic domains of human JAK1 (a.a. 837-1142); His tag (N); made in house; host or cells: insect cells (baculovirus)
Description: as §1

[2] = 1 mM ATP, Examples 12-91, read-out: JAK2 IC50 (nM) @ 1 mM ATP
[3] = 1 mM ATP, Examples 12-91, read-out: JAK1 IC50 (nM) @ 1 mM ATP
[4] = 1 mM ATP, Examples 92-162, read-out: JAK2 IC50 (nM) @ 1 mM ATP
[5] = 1 mM ATP, Examples 92-162, read-out: JAK1 IC50 (nM) @ 1 mM ATP

T1 sequence (O60674 828-1132): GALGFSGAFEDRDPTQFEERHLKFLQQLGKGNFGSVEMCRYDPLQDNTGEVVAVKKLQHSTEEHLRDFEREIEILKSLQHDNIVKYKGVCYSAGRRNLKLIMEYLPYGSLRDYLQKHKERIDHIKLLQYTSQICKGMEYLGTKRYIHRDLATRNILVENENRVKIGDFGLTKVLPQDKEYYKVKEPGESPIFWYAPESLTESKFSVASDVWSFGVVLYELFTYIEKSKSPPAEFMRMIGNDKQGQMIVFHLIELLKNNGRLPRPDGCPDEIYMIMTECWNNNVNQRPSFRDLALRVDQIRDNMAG
T2 sequence (P23458 849-1154): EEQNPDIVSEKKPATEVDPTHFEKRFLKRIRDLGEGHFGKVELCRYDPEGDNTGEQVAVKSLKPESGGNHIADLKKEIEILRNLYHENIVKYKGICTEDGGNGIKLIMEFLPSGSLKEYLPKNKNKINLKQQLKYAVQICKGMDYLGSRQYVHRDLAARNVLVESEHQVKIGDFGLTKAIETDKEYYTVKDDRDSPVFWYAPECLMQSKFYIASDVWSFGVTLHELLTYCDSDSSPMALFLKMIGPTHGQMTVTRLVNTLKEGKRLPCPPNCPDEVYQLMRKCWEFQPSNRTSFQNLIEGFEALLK

Compound	IC50 (Jak2 (a.a. 828-1132); [2])	IC50 [1, 3]	IC50 (Jak2 (a.a. 828-1132); [4])	IC50 [1, 5]	also measured
Cc1cccc(Cl)c1NC(=O)N1CCN(CC(CC#N)n2cc(-c3ncnc4[nH]ccc34)cn2)CC1 (centres unmarked) [Example 71, 4-(2-(4-(7H-pyrrolo[2,3-d]pyrimidin-4-yl)-1H-pyrazol-1-yl)-3-cyanopropyl)-N-(2-chloro-6-methylphenyl)piperazine-1-carboxamide]	10 to 50 nM	10 to 50 nM			
N#CCC(CN1CCN(C(=O)c2ccc(C#N)cc2F)CC1C(F)F)n1cc(-c2ncnc3[nH]ccc23)cn1 (single isomer, unassigned) [Example 159—peak 2, 4-{[4-{3-cyano-2-[4-(7H-pyrrolo[2,3-d]pyrimidin-4-yl)-1H-pyrazol-1-yl]propyl}-3-(difluoromethyl)piperazin-1-yl]carbonyl}-3-fluorobenzonitrile]			50 to 100 nM	50 to 100 nM	
CCC(CN1CCN(S(=O)(=O)c2ccccc2C#N)CC1)n1cc(-c2ncnc3[nH]ccc23)cn1 (centres unmarked) [Example 128, 2-(4-(2-(4-(7H-pyrrolo[2,3-d]pyrimidin-4-yl)-1H-pyrazol-1-yl)butyl)piperazin-1-ylsulfonyl)benzonitrile]			50 to 100 nM	< 20 nM	
N#CCC(CN1CCN(C(=O)c2ccc(F)c(F)c2F)CC1)n1cc(-c2ncnc3[nH]ccc23)cn1 (centres unmarked) [Example 48, 3-(4-(7H-pyrrolo[2,3-d]pyrimidin-4-yl)-1H-pyrazol-1-yl)-4-(4-(2,3,4-trifluorobenzoyl)piperazin-1-yl)butanenitrile phosphate salt]	10 to 50 nM	< 10 nM			
N#CCC(CN1CCN(C(=O)Nc2c(F)cccc2F)CC1)n1cc(-c2ncnc3[nH]ccc23)cn1 (centres unmarked) [Example 69, 4-(2-(4-(7H-pyrrolo[2,3-d]pyrimidin-4-yl)-1H-pyrazol-1-yl)-3-cyanopropyl)-N-(2,6-difluorophenyl)piperazine-1-carboxamide]	10 to 50 nM	< 10 nM			
CS(=O)(=O)N1CCN(CC(CC#N)n2cc(-c3ncnc4[nH]ccc34)cn2)CC1 (centres unmarked) [Example 1, 4-[4-(methylsulfonyl)piperazin-1-yl]-3-[4-(7H-pyrrolo[2,3-d]pyrimidin-4-yl)-1H-pyrazol-1-yl]butanenitrile]					IC50 (Jak2 (a.a. 828-1132); 1 mM ATP, Examples 1-11, read-out: IC50 (nM) @ 1 mM ATP JAK2): 10 to 20 nM; IC50 (Jak2 (a.a. 828-1132); Km ATP (30 μM for Jak2), Examples 1-11, read-out: IC50 (nM) @ Km ATP JAK2): < 10 nM; IC50 ([1]; 1 mM ATP, Examples 1-11, read-out: IC50 (nM) @ 1 mM ATP JAK1): < 10 nM; IC50 ([1]; Km ATP (90 μM for Jak1), Examples 1-11, read-out: IC50 (nM) @ Km ATP JAK1): < 10 nM
CCC(CN1CCN(S(=O)(=O)c2ccc(F)cc2C)CC1)n1cc(-c2ncnc3[nH]ccc23)cn1 (centres unmarked) [Example 143, 4-(1-(1-(4-(4-floro-2-methylphenylsulfonyl)piperazin-1-yl)butan-2-yl)-1H-pyrazol-4-yl)-7H-pyrrolo[2,3-d]pyrimidine]			> 100 nM	< 20 nM	
CCC(CN1CCN(S(=O)(=O)c2sccc2Cl)CC1)n1cc(-c2ncnc3[nH]ccc23)cn1 (centres unmarked) [Example 135, 4-(1-(1-(4-(3-chlorothiophen-2-ylsulfonyl)piperazin-1-yl)butan-2-yl)-1H-pyrazol-4-yl)-7H-pyrrolo[2,3-d]pyrimidine]			20 to 50 nM	< 20 nM	
N#CCC(CN1CCN(S(=O)(=O)c2ccccc2C#N)CC1)n1cc(-c2ncnc3[nH]ccc23)cn1 (centres unmarked) [Example 60, 2-(4-(2-(4-(7H-pyrrolo[2,3-d]pyrimidin-4-yl)-1H-pyrazol-1-yl)-3-cyanopropyl)piperazin-1-ylsulfonyl)benzonitrile]	< 10 nM	< 10 nM			

Further lines, with some results ahead:

IC50 (Jak2 (a.a. 828-1132); [2])	IC50 [1, 3]	IC50 (Jak2 (a.a. 828-1132); [4])	IC50 [1, 5]	Compound	also measured
10 to 50 nM	< 10 nM			4-(4-(2-(4-(7H-pyrrolo[2,3-d]pyrimidin-4-yl)-1H-pyrazol-1-yl)-3-cyanopropyl)piperazine-1-carbonyl)-3-hydroxybenzonitrile [Example 77]	
		20 to 50 nM	< 20 nM	COc1ccc(Cl)cc1S(=O)(=O)N1CCCN(CC(CC#N)n2cc(-c3ncnc4[nH]ccc34)cn2)CC1 (centres unmarked) [Example 112]	
		20 to 50 nM	< 20 nM	CCC(CN1CCN(C(=O)c2ccc(F)cc2F)CC1)n1cc(-c2ncnc3[nH]ccc23)cn1 (centres unmarked) [Example 118, (4-(2-(4-(7H-pyrrolo[2,3-d]pyrimidin-4-yl)-1H-pyrazol-1-yl)butyl)piperazin-1-yl)(2,4-difluorophenyl)methanone]	
50 to 100 nM	10 to 50 nM			N#CCC(CN1CCN(C(=O)c2ccc(F)cn2)CC1)n1cc(-c2ncnc3[nH]ccc23)cn1 (centres unmarked) [Example 21, 4-{4-[(5-fluoropyridin-2-yl)carbonyl]piperazin-1-yl}-3-[4-(7H-pyrrolo[2,3-d]pyrimidin-4-yl)-1H-pyrazol-1-yl]butanenitrile trifluoroacetate Salt]	
< 10 nM	< 10 nM			N#CCC(CN1CCN(S(=O)(=O)c2cc(F)cc(F)c2)CC1)n1cc(-c2ncnc3[nH]ccc23)cn1 (centres unmarked) [Example 61, 3-(4-(7H-pyrrolo[2,3-d]pyrimidin-4-yl)-1H-pyrazol-1-yl)-4-(4-(3,5-difluorophenylsulfonyl)piperazin-1-yl)butanenitrile trifluoroacetate salt]	
		> 100 nM	20 to 50 nM	Cc1cc(S(=O)(=O)N2CCN(CC(C)n3cc(-c4ncnc5[nH]ccc45)cn3)CC2)c(C(F)(F)F)o1 (centres unmarked) [Example 92, 4-{1-[1-methyl-2-(4-{[5-methyl-2-(trifluoromethyl)-3-furyl]sulfonyl}piperazin-1-yl)ethyl]-1H-pyrazol-4-yl}-7H-pyrrolo[2,3-d]pyrimidine]	
		> 100 nM	20 to 50 nM	CCC(CN1CCN(C(=O)c2cccs2)CC1)n1cc(-c2ncnc3[nH]ccc23)cn1 (centres unmarked) [Example 126, (4-(2-(4-(7H-pyrrolo[2,3-d]pyrimidin-4-yl)-1H-pyrazol-1-yl)butyl)piperazin-1-yl)(thiophen-2-yl)methanone]	
10 to 50 nM	< 10 nM			N#CCC(CN1CCN(C(=O)c2ccc(C(F)(F)F)cc2F)CC1)n1cc(-c2ncnc3[nH]ccc23)cn1 (centres unmarked) [Example 45, 3-(4-(7H-pyrrolo[2,3-d]pyrimidin-4-yl)-1H-pyrazol-1-yl)-4-(4-(2-fluoro-4-(trifluoromethyl)benzoyl)piperazin-1-yl)butanenitrile trifluoroacetate salt]	
		> 100 nM	20 to 50 nM	N#CCC(CN1CCCN(C(=O)c2ccc(Cl)cc2Cl)CC1)n1cc(-c2ncnc3[nH]ccc23)cn1 (centres unmarked) [Example 103, 4-[4-(2,4-dichlorobenzoyl)-1,4-diazepan-1-yl]-3-[4-(7H-pyrrolo[2,3-d]pyrimidin-4-yl)-1H-pyrazol-1-yl]butanenitrile]	
10 to 50 nM	< 10 nM			N#CCC(CN1CCN(C(=O)c2cc(OC(F)(F)F)ccc2F)CC1)n1cc(-c2ncnc3[nH]ccc23)cn1 (centres unmarked) [Example 41, 3-(4-(7H-pyrrolo[2,3-d]pyrimidin-4-yl)-1H-pyrazol-1-yl)-4-(4-(2-fluoro-5-(trifluoromethoxy)benzoyl)piperazin-1-yl)butanenitrile]	
> 100 nM	10 to 50 nM			N#CCC(CN1CCN(C(=O)c2ncc(C#N)cc2F)CC1)n1cc(-c2ncnc3[nH]ccc23)cn1 (centres unmarked) [Example 17, 6-[(4-{3-cyano-2-[4-(7H-pyrrolo[2,3-d]pyrimidin-4-yl)-1H-pyrazol-1-yl]propyl}piperazin-1-yl)carbonyl]-5-fluoronicotinonitrile]	
		20 to 50 nM	< 20 nM	N#CCC(CN1CCCN(C(=O)c2ccc(Cl)cc2F)CC1)n1cc(-c2ncnc3[nH]ccc23)cn1 (centres unmarked) [Example 100, 4-[4-(4-chloro-2-fluorobenzoyl)-1,4-diazepan-1-yl]-3-[4-(7H-pyrrolo[2,3-d]pyrimidin-4-yl)-1H-pyrazol-1-yl]butanenitrile]	
